Experiments:
P2X7 [1] = biological target: T1, P2X7 (Homo sapiens, UniProt Q99572); assay: Pore permeation assay (YO PRO dye uptake, BzATP-induced); type: cell-based; parameters: expressed in transfected cells; host or cells: HEK293; settings: HEK293 transfected with human P2X7 receptor; YO PRO dye 1 uM, BzATP 10 uM; read-out: hP2X7 IC50
T1 sequence (Q99572 1-595): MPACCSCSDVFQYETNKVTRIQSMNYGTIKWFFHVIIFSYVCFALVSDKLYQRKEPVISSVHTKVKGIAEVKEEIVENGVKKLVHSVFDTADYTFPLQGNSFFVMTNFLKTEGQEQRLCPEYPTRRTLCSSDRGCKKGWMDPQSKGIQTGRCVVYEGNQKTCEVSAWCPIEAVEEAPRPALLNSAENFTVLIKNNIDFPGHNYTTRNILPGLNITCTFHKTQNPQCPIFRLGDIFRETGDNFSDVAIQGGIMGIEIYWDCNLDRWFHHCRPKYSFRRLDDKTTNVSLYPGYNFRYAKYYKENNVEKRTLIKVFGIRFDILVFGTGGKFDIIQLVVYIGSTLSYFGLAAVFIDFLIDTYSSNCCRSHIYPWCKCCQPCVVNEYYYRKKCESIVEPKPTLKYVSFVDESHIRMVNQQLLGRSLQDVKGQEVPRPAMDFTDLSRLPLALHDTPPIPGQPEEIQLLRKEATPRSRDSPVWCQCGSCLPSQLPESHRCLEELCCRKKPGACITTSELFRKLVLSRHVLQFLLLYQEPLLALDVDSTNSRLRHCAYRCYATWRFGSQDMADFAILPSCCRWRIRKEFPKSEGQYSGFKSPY
Protocol: Agonist-induced pore formation was determined by measuring cellular uptake of YO PRO fluorescence dye in HEK293 transfected with human P2X7 receptor. A HEK293 cell over expressing human P2X7 was harvested using HQTase reagent to detach the cells from T75 cm flask. The harvested cells are centrifuged @ 1200 rpm for 5 min at room temperature. The viability of cells was determined by Trypan blue dye and the cells are plated @ 10,000 cell/well in 50 ul volume in a 384 W BD Poly lysine coated plate and incubated overnight at 37 C. After overnight incubation, the culture medium was replaced with 35 ul/well assay buffer (5 mM KCl, 0.1 mM CaCl2, 5 mM Glucose, 10 mM HEPES buffer pH7.4 containing 125 mM NaCl. The serial dilution of compounds was performed using Bravo liquid handling instrument and the compounds were added using Bravo to the cell assay plate starting at 2.5 uM with three dilutions for 10 points. The positive control inhibitor compound was added to column 23. The plate was shaken slowly on a plate shaker for 10 seconds. The cells were incubated with the compound for 20 minutes at room temperature. After the incubation period, YO PRO dye (1 uM) along with BzATP (10 uM) were added to cells at 10 ul/well. The plate was centrifuged at 1000 rpm for 5 seconds and incubated at room temperature for 30 minutes. The uptake of YO PRO dye into the cells was measured using Envision Fluorescence plate reader instrument (Perkin Elmer).

P2X7 [2] = biological target: T1, P2X7; assay: IL-1β release assay in THP-1 cells (sandwich ELISA); type: cell-based; parameters: release of mature IL-1β in the culture medium of THP-1 cells; endogenous in cells; host or cells: THP-1 cells (PMA-differentiated, LPS-primed); settings: PMA, LPS primed, stimulated with 0.8 mM BzATP, mature IL-1β release, read-out: hTHP-1/IL-ib IC50
Protocol: The activation of P2X7 by ATP leads to a fast transient activation of cells resulting in influx of Ca^2+ followed by conversion of pro-IL-1β to active IL-1β. The functional activity of P2X7 compounds was measured by the release of mature IL-1β in the culture medium of THP-1 cells, detected by sandwich ELISA. Cells were maintained in complete growth medium (RPMI 1640+10% HI-FCS+2 mM L-glutamine+1×PS). […] THP-1 cells were harvested from the flask in 50 ml by centrifugation for 3 min at 100 g. The cells were resuspended to 2×10^5 cells/ml in medium supplemented with 0.5 μM PMA and incubated. The cells were washed and resuspended to 1.5×10^5 cells/ml in medium complemented with 10 ng/ml LPS, and the cells were primed for 4 h at 37° C., 5% CO2. After addition of 20 μL of prediluted test compounds, blank, standard and control reagents, cells were incubated for a further 20 min at 37° C. and stimulated with 0.8 mM BzATP for 30 minutes. The cells were centrifuged, supernatant was collected and the presence of mature IL-1β was detected using Dual human IL-1b kit following manufacturer's instruction. The tetrahydrobenzodiazepine analogs effectively modulated the activity of P2X7 in the cells as measured by the levels of pro-inflammatory cytokine IL-1β, which is released by the activation of P2X7 receptor.

IC50 (P2X7 [1]) [µM]	IC50 (P2X7 [2]) [µM]	Compound
0.101 to 0.5	0.101 to 0.5	O=C(NCC1CCC(F)(F)CC1)c1c(Cl)ccc2nc(N3CC(F)(F)C3)ccc12 [Compound 74, 6-Chloro-2-(3,3-difluoro-azetidin-1-yl)-quinoline-5-carboxylic acid (4,4-difluoro-cyclohexylmethyl)-amide]
0.101 to 0.5	0.101 to 0.5	O=C(NCC1(O)CCCC(F)(F)C1)c1c(Cl)ccc2nc(N3CC(F)(F)C3)ccc12 (stereo not shown) [Compound 75, 6-Chloro-2-(3,3-difluoroazetidin-1-yl)-quinoline-5-carboxylic acid (3,3-difluoro-1-hydroxycyclohexylmethyl)-amide]
0.01 to 0.1	0.101 to 0.5	O=C(NCC1CCC(F)(F)CC1)c1c(Cl)ccc2nc(N3CCC(F)(F)C3)ccc12 [Compound 58]
0.01 to 0.1		CC(C)(C)OC(=O)N1CCC(c2ccc3c(C(=O)NCC4CCC(F)(F)CC4)c(Cl)ccc3n2)CC1 [Compound 71, 4-{6-Chloro-5-[(4,4-difluoro-cyclohexylmethyl)-carbamoyl]-quinolin-2-yl}-piperidine-1-carboxylic acid tert-butyl ester]
0.01 to 0.1		O=C1C=C(c2ccc3c(C(=O)NCC4CCC(F)(F)CC4)c(Cl)ccc3n2)CC1 [Compound 72]
0.101 to 0.5		CCOC(=O)CCNc1ccc2c(C(=O)NCC3CCC(F)(F)CC3)c(Cl)ccc2n1 [Compound 81, 3-{6-Chloro-5-[(4,4-difluoro-cyclohexylmethyl)-carbamoyl]-quinolin-2-ylamino}-propionic acid ethyl ester]
0.01 to 0.1		O=C(NCC1CCC(F)(F)CC1)c1c(Cl)ccc2nc(N3CCC(O)C3)ccc12 (stereo not shown) [Compound 57, 6-Chloro-2-(3-hydroxy-pyrrolidin-1-yl)-quinoline-5-carboxylic acid (4,4-difluoro-cyclo hexylmethyl)-amide]
0.101 to 0.5		O=C(NCC1CCC(F)(F)CC1)c1c(Cl)ccc2nc(N3CCCC(C(=O)O)C3)ccc12 (stereo not shown) [Compound 79, 1-{6-Chloro-5-[(4,4-difluoro-cyclohexylmethyl)-carbamoyl]-quinolin-2-yl}-piperidine-3-carboxylic acid]
0.101 to 0.5		COCCCNc1ccc2c(C(=O)NCC3CCC(F)(F)CC3)c(Cl)ccc2n1 [Compound 77, 6-Chloro-2-(3-methoxy-propylamino)-quinoline-5-carboxylic acid (4,4-difluoro-cyclohexyl methyl)-amide]
0.101 to 0.5		CN(C)C(=O)CCNc1ccc2c(C(=O)NCC3CCC(F)(F)CC3)c(Cl)ccc2n1 [Compound 82, 6-Chloro-2-(2-dimethylcarbamoyl-ethylamino)-quinoline-5-carboxylic acid (4,4-difluoro-cyclo hexyl methyl)-amide]
> 1		O=C(O)CCNc1ccc2c(C(=O)NCC3CCC(F)(F)CC3)c(Cl)ccc2n1 [Compound 83, 3-{6-Chloro-5-[(4,4-difluorocyclohexylmethyl)-carbamoyl]-quinolin-2-ylamino}-propionic acid]

More lines, now with the values behind:

Compound	IC50 (P2X7 [1]) [µM]	IC50 (P2X7 [2]) [µM]
O=C(NCC1CCC(F)(F)CC1)c1c(Cl)ccc2nc(N3CCC3)ccc12 [Compound 49, 2-(azetidin-1-yl)-6-Chloro-quinoline-5-carboxylic acid (4,4-difluoro-cyclohexylmethyl)-amide]	0.01 to 0.1	0.01 to 0.1
C[C@@H]1CCC[C@](O)(CNC(=O)c2c(Cl)ccc3nc(N4CC[C@H](F)C4)ccc23)C1 [Compound 9, 6-Chloro-2-(3-(S)-fluoropyrrolidin-1-yl)-quinoline-5-carboxylic acid ((1R,3R)-1-hydroxy-3-methyl-cyclohexylmethyl)-amide]	< 0.01	0.01 to 0.1
C[C@@H]1CCC[C@](O)(CNC(=O)c2c(Cl)ccc3nc(N4CC[C@@H](N(C)C)C4)ccc23)C1 [Compound 22, 6-Chloro-2-((R)-3-dimethylamino-pyrrolidin-1-yl)-quinoline-5-carboxylic acid ((1R,3R)-1-hydroxy-3-methyl-cyclohexylmethyl)-amide]	0.01 to 0.1	
O=C(NCC1CCC(F)(F)CC1)c1c(Cl)ccc2nc(N3CCC(CCO)C3)ccc12 (stereo not shown) [Compound 56]	0.01 to 0.1	0.01 to 0.1
O=C(NCC1CCCC(F)(F)C1)c1c(Cl)ccc2nc(N3CCC(N4CCCC4)C3)ccc12 (stereo not shown) [Compound 34, 6-Chloro-2-(3-pyrrolidinyl-pyrrolidin-1-yl)-quinoline-5-carboxylic acid (3,3-difluoro-cyclohexylmethyl)-amide]	0.01 to 0.1	0.01 to 0.1
CN(C)[C@@H]1CCN(c2ccc3c(C(=O)NCC4(O)CCC(F)(F)CC4)c(Cl)ccc3n2)C1 [Compound 23, 6-Chloro-2-((R)-3-dimethylamino-pyrrolidin-1-yl)-quinoline-5-carboxylic acid (4,4-difluoro-1-hydroxy-cyclohexylmethyl)-amide]	0.01 to 0.1	0.01 to 0.1
C[C@@H]1CCC[C@](O)(CNC(=O)c2c(Cl)ccc3nc(N4CCCC4)ccc23)C1 [Compound 16, 6-Chloro-2-pyrrolidin-1-yl-quinoline-5-carboxylic acid ((1R,3R)-1-hydroxy-3-methyl-cyclohexylmethyl)-amide]	< 0.01	
O=C(NCC1(O)CCCC(F)(F)C1)c1c(Cl)ccc2nc(N3CC[C@@H](F)C3)ccc12 (stereo partly drawn) [Compound 37, 6-Chloro-2-((R)-3-fluoropyrrolidin-1-yl)-quinoline-5-carboxylic acid (3,3-difluoro-1-hydroxycyclohexylmethyl)-amide]	0.01 to 0.1	0.01 to 0.1
C[C@H]1CCC[C@@](O)(CNC(=O)c2c(Cl)ccc3nc(C4CCCC4)ccc23)C1 [Compound 7, 6-Chloro-2-cyclopentyl-quinoline-5-carboxylic acid ((1S,3S)-1-hydroxy-3-methyl-cyclohexylmethyl)-amide]	< 0.01	
O=C(NCC1CCC(F)(F)CC1)c1c(Cl)ccc2nc(C3CCCC3)ccc12 [Compound 43, 6-Chloro-2-cyclopentyl-quinoline-5-carboxylic acid (4,4-difluoro-cyclohexylmethyl)-amide]	0.01 to 0.1	
CC1CCCC(O)(CNC(=O)c2c(Cl)ccc3nc(N4CC[C@@H](N(C)C)C4)ccc23)C1 (stereo partly shown) [Compound 14]	< 0.01	
C[C@H]1CCC[C@@](O)(CNC(=O)c2c(Cl)ccc3nc(N4CCCC4)ccc23)C1 [Compound 2, 6-Chloro-2-pyrrolidin-1-yl-quinoline-5-carboxylic acid ((1S,3S)-1-hydroxy-3-methyl-cyclohexylmethyl)-amide]	< 0.01	
C[C@@H]1CCC[C@](O)(CNC(=O)c2c(Cl)ccc3nc(C4CCCC4)ccc23)C1 [Compound 15, 6-Chloro-2-cyclopentyl-quinoline-5-carboxylic acid ((1R,3R)-1-hydroxy-3-methyl-cyclohexylmethyl)-amide]	< 0.01	
O=C(NCC1CCC(F)(F)CC1)c1c(Cl)ccc2nc(C3CCNCC3)ccc12 [Compound 53, 6-Chloro-2-piperidin-4-yl-quinoline-5-carboxylic acid (4,4-difluorocyclohexylmethyl)-amide]	0.01 to 0.1	
